Experimental data: US10844102B2, “Peptides, compositions, and methods for stimulating subcutaneous adipogenesis” (The Regents of the University of California, priority 2014, dated 2020)
Entries after “also recorded” stand apart in the source; their conditions may differ. Like-named read-outs stand apart in the source and are kept apart here.

Tests used:
[1] = test system: mammary fat pads of aged female rats; test: In vivo adipogenesis in mammary fat pads of aged female rats (microCT); parameters: species or system rat; conditions: eight-month-old female rats, 100 μg peptide in 100 μl collagen gel, 7 days, versus collagen only
Experimental: Peptides were also tested for their ability to stimulate adipogenesis in mammary fat pads of aged (8 month old) female rats in vivo. Mammary fat pads are rich in adipocyte progenitor cells.
Eight-month-old female Sprague Dawley rats (retired breeders) were injected with 100 μl collagen gel (Vitrogen) containing 100 μg peptide into the fourth right mammary fat pad, as depicted in FIG. 10. […] The collagen and peptides were injected at the top of the ROI nearest the nipple. The collagen and peptide diffuse into the fat pad following injection and active peptides target RHAMM-positive progenitor cells present in the fat pad. Collagen alone was injected into the fourth left mammary fat pad as a negative control.
Following injection of the collagen and peptide or collagen alone, animals were maintained on rat chow and water for 7 days and then euthanized. Micro-computed tomography (microCT) imaging of the […] was performed on animals using a Locus Ultra scanner (GE Healthcare, London, ON, Canada). The animals were imaged ex vivo with an X-ray tube voltage of 80 kV and a tube current of 55 mA. Nine hundred projections of data were acquired at an angular increment of 0.4 degrees around the rat in an exposure time of 16 ms. The data were then reconstructed into a 3D volume image with a voxel size of 154 μm. The subcutaneous mammary fat measured in 10×5×3 mm rectangular area (the region of interest (ROI)) below the nipple, avoiding measurement of underlying visceral fat (see the region labeled “fat pad” in FIG. 11). The amount of fat in the ROI was calculated as mass (mg) per ROI.

[2] = test system: rat mesenchymal stem cells; test: Assay 2: adipogenesis, Oil Red O staining (differentiation of pre-adipocytes into adipocytes); assay type: cell-based; conditions: for adipogenic activity in Assay 2: Assay 2, Oil Red O, concentration not given; for adipogenesis quantified by Oil Red O staining, fold change relative to the negative control: three weeks
Experimental: Reagents: The Dexamethasone, IBMX, Insulin, and Oil Red O Solutions were the same as described above for assay 1. Indomethacin Solution contained 10 mM indomethacin in methanol.
Adipogenesis Maintenance Media was prepared as described above.
Adipogenesis Induction Media: To prepare 501.5 mL of Adipogenesis Induction Media, 50 μL of the 10 mM stock Dexamethasone Solution, 500 μL of the 0.5 M IBMX stock solution, 500 μL of the 10 mg/ml stock Insulin Solution, 5 ml of a 10 mM stock Indomethacin Solution, and 5 mL of a 100× stock solution of penicillin and streptomycin were added to 490 mL of mesenchymal stem cell expansion media.
Pre-adipocyte stem cells, bone marrow mesenchymal stem cells or fibroblasts such as dermal reticular and papillary fibroblasts were propagated using standard tissue culture methods. Cells were trypsinized to remove cells from the substratum, the trypsin was neutralized, and cells were counted using a hemocytometer. Cells were resuspended at 20,000 cells/ml in DMEM containing 10% calf serum. 1 mL of cell suspension per well was plated in a 48-well plate, with several wells left empty for blank well (blank control) staining.
Cells were incubated for 2 days overnight and had reached confluency at this point. Media was removed from each well and replaced with 0.5 ml Adipogenesis Induction Media. For negative control (no insulin, no peptide) wells, expansion medium only was used at this step and for subsequent media changes. For all media changes, media was replaced as gently as possible to avoid disturbing the monolayer.
Cells were incubated for 72 hours at 37° C., 5% CO2. Media was removed and replaced with 0.5 ml of Adipogenesis Maintenance Media containing either RHAMM antagonist peptides (experimental group) or insulin (concentration as in the Adipogenesis Induction Media and used as a positive control). Cells were incubated for at least 96 hours in this media at 37° C., 5% CO2. Media was replaced every 48 hours and experiments were terminated between seven and fourteen days after addition of insulin or peptides.
Media was removed and Oil Red O staining was performed as described above for assay 1.
Assay 1 is an assay that promotes transdifferentiation of fibroblasts into adipocytes, whereas Assay 2 promotes differentiation of multi-potential mesenchymal progenitor cells into adipocytes. Immortalized rat bone marrow mesenchymal stem cells were used for both assays. These cells contain cells of different lineages, including fibroblasts, pre-adipocytes, pre-chondrocytes and pre-osteoblasts. Thus, Assay 1 was used to promote transdifferentiation of fibroblast lineages into adipocytes and Assay 2 was used to promote differentiation of the pre-adipocytes into adipocytes.
As described in Example 1 above, the priming stimulus for Assay 1 includes IBMX (3-isobutyl-1-methylxanthine) and dexamethasone, and then insulin as the final adipogenic stimulus. The priming stimulus for assay 2 includes IBMX, dexamethasone and indomethacin, and then insulin as the final adipogenic stimulus.
Adipogenesis was quantified by Oil Red O staining. The peptide was tested at concentrations of 5 and 50 μg/ml over a period of three weeks. Cells were plated in 48-well culture plates, and the purity of the peptides was >95%. All data are presented as the fold change relative to the negative control (Ctr(−))±standard error. The KSEVSK 6-mer (SEQ ID NO: 7) was used as a positive control.

[3] = test system: human primary cells directly isolated from human subcutaneous fat or dermal tissue; test: Human primary cells isolated from subcutaneous fat or dermal tissue; assay type: cell-based
[4] = test system: adipogenesis; conditions: earlier reports, WO 2014/082042 and background; cited from earlier work
[5] = test system: dermis of aged rats; test: Rat dermal skin model of adipogenesis (injection into the dermis of aged rats); assay type: in vivo; conditions: injected into the dermis of aged rats / rat skin
[6] = test system: adipogenesis; test: Adipogenic activity of peptides and peptide fragments, assay not specified; assay type: cell-based; conditions: assay not specified
Experimental: In the second approach, a series of truncations and alanine mutagenesis on peptide B were performed in order to identify the smallest active sequence. Fragments of peptide B were prepared and assayed for adipogenesis. First, fragments corresponding to the two halves of peptide B were prepared (KLKDENS (SEQ ID NO: 8) and SQLKSEVSK (SEQ ID NO: 13)).

KTRAHHV (listed as Paenibacillus polymyxa)
adipogenesis in vivo in mammary fat pads [1]: induce adipogenesis in vivo
adipogenesis in vivo in mammary fat pads ([1]; listed as KTRASHHV): able to induce adipogenesis in vivo
adipogenic activity in Assay 2 [2]: ablated adipogenic activity

KSEVSK (listed as Homo sapiens) [reference compound]
adipogenic activity in human primary cells [3]: exhibited adipogenic activity
adipogenesis in vivo in mammary fat pads [1]: mammary fat pad enlargement
specific activity among the 9-mer, 7-mer and 6-mer fragments ([2]; Assay 2): highest specific activity
adipogenic activity in Assay 2 [2]: exhibit adipogenic activity
adipogenic activity [4]: strongly adipogenic
adipogenic effects in rat skin [5]: induce large fat pads
adipogenic activity [6]: also found to be adipogenic

KLKDENSQLK (listed as Homo sapiens)
adipogenesis in vivo in mammary fat pads [1]: exhibited activity
adipogenic activity in Assay 2 [2]: exhibited activity
adipogenesis quantified by Oil Red O staining, fold change relative to the negative control ([2]; Assay 2, peptide 5 μg/ml): significant increase in adipogenesis
adipogenesis quantified by Oil Red O staining, fold change relative to the negative control ([2]; Assay 2, peptide 50 μg/ml): significant increase in adipogenesis
adipogenic activity [6]: has adipogenic activity; also recorded: are adipogenic

KLKDENSQLR (listed as Erinaceus europaeus)
adipogenesis in vivo in mammary fat pads [1]: not subsequently shown to be adipogenic
adipogenic activity in Assay 2 [2]: promising results
